Patent US8791132B2, “Compounds and methods for treatment of hypertension” (Medivation Technologies, Inc., priority 2011, dated 2014)
Where “and” joins values, the source holds several entries; their conditions need not be identical. Identical values can stand only once. Like-named read-outs stand apart in the source and are kept apart here.

Experiments:
[1] = target: T1, human recombinant adrenergic α2A receptor (Homo sapiens, UniProt P08913); assay: Radioligand binding, adrenergic α2A ([3H]MK-912); settings: for Percentage inhibition of ligand binding, Adrenergic α2A / Percentage inhibition of ligand binding, Adrenergic α2A (0.1 μM): 0.1 µM
T1 construct: expressed in transfected cells; host or cells: insect Sf9 cells
T1 sequence (P08913 1-465): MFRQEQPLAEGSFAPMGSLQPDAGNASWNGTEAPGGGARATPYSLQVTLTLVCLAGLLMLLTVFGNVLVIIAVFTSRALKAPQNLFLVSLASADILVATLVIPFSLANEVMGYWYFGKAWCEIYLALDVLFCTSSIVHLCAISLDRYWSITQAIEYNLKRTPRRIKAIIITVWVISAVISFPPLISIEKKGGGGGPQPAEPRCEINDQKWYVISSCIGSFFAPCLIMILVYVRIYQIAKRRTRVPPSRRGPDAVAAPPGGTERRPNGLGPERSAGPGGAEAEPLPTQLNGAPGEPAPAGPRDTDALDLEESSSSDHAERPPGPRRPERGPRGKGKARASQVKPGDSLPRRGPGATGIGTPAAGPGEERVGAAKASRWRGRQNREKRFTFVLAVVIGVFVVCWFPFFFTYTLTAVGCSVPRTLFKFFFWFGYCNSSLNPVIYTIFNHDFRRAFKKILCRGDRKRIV
Procedure, shortened: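 Sf9-expressed receptor was incubated with compound for 60 min at 25 °C in modified Tris-HCl buffer, pH 7.4. Nonspecific binding was taken as that remaining with 10 μM WB-4101.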

[2] = target: T2, human recombinant adrenergic α2B receptor (Homo sapiens, UniProt P18089); assay: Radioligand binding, adrenergic α2B ([3H]Rauwolscine); settings: for Percentage inhibition of ligand binding, Adrenergic α2B / Percentage inhibition of ligand binding, Adrenergic α2B (0.03 μM): 0.03 µM; for Ki: read-out: Ki α2B
T2 construct: expressed in transfected cells; host or cells: CHO-K1
T2 sequence (P18089 1-450): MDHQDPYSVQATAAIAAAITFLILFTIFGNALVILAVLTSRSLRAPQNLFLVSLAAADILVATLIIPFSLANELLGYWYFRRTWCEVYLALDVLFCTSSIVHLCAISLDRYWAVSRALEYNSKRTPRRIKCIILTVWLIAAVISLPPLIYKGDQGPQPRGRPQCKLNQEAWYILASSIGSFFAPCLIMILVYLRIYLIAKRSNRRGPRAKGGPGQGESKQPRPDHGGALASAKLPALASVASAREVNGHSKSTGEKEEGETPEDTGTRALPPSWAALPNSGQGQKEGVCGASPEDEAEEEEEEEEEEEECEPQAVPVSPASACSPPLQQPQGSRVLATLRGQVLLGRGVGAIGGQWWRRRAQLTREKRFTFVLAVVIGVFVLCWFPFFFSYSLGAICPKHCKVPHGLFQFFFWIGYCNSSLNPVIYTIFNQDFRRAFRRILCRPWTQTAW
Procedure, shortened: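 Values are percent inhibition of specific radioligand binding. The receptor, expressed in CHO-K1 cells, was exposed to 2.5 nM [3H]Rauwolscine at 25° C for 60 min, with 10 μM Prazosin marking non-specific binding.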

[3] = target: T3, rat adrenergic α1B receptor (Rattus norvegicus, UniProt P15823); assay: Radioligand binding, adrenergic α1B ([3H]Prazosin); settings: [3H]Prazosin; for Percentage inhibition of ligand binding, Adrenergic α1B / Percentage inhibition of ligand binding, Adrenergic α1B (0.1 μM): 0.1 µM
T3 construct: rat adrenergic α1B receptor obtained from Wistar Rat liver; from tissue; host or cells: Wistar rat liver
T3 sequence (P15823 1-515): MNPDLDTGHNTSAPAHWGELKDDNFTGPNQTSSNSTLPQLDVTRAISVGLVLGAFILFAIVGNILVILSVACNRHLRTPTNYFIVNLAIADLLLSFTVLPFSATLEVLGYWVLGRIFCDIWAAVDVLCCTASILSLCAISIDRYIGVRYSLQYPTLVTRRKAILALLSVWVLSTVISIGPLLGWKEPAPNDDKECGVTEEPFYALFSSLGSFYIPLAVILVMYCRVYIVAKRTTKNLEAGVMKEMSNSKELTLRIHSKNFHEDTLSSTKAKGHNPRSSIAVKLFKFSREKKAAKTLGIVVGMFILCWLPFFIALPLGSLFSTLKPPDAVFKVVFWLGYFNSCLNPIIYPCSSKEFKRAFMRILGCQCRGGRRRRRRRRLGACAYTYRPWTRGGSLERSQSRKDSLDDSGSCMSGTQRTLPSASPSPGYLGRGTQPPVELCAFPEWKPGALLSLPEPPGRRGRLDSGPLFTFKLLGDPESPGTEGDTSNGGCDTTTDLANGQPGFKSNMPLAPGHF
Procedure, shortened: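 Filter binding with Wistar rat liver α1B preparation: test compound plus 0.25 nM [3H]prazosin, 1 h at 25° C in modified Tris-HCl buffer pH 7.4.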

[4] = read-out: Percentage inhibition of ligand binding, Adrenergic α2A (0.1 μM), compound at 0.1 μM, [3H]MK-912, repeat datapoints each shown
[5] = read-out: Percentage inhibition of ligand binding, Adrenergic α2B (0.03 μM), compound at 0.03 μM, [3H]Rauwolscine, repeat datapoints each shown
[6] = read-out: Percentage inhibition of ligand binding, Adrenergic α1B (0.1 μM), compound at 0.1 μM, repeat datapoints each shown
[7] = compound at 0.1 μM, [3H]MK-912, repeat assays, each datapoint shown
[8] = compound at 0.03 μM, [3H]Rauwolscine, repeat assays, each datapoint shown
[9] = compound at 0.1 μM, repeat assays, each datapoint shown
[10] = compound at 0.1 μM, [3H]MK-912, repeat datapoints each shown
[11] = compound at 0.03 μM, [3H]Rauwolscine, repeat datapoints each shown
[12] = compound at 0.1 μM, repeat datapoints each shown

inhibition at 0.1 µM [1, 4] [%] | inhibition at 0.03 µM [2, 5] [%] | inhibition at 0.1 µM [3, 6] [%] | Percentage inhibition of ligand binding, Adrenergic α2A (0.1 μM) [1, 10] | Percentage inhibition of ligand binding, Adrenergic α2B (0.03 μM) [2, 11] | Percentage inhibition of ligand binding, Adrenergic α1B (0.1 μM) [3, 12] | Compound | further results
18 | 90 | 28 |  |  |  | Cc1ccc2c(c1)c1c(n2CC(N=[N+]=[N-])c2ccc(C(N)=O)nc2)CCN(C)C1 (stereo not drawn) [V-22, 5-[1-azido-2-(2,8-dimethyl-1,2,3,4-tetrahydro-pyrido[4,3-b]indol-5-yl)-ethyl]-pyridine-2-carboxylic acid amide] | 
 |  |  |  |  |  | CN1CCc2c(c3ccc(Cl)cc3n2CC(O)c2ccncc2)C1 (single isomer, unassigned) [53b, 2-(7-chloro-2-methyl-3,4-dihydro-1H-pyrido[4,3-b]indol-5(2H)-yl)-1-(pyridin-4-yl)ethanol] | Percentage inhibition of ligand binding, Adrenergic α2A [1, 7]: 12%; Percentage inhibition of ligand binding, Adrenergic α2B [2, 8]: 85%; Percentage inhibition of ligand binding, Adrenergic α1B [3, 9]: 14%
7 | 44 | 27 |  |  |  | Cc1cnc2c(c1)c1c(n2CCc2cnccn2)CCN2CCCC12 (stereo not drawn) [II-245] | 
 |  |  |  |  |  | Cc1cnc2c(c1)c1c(n2CC(C)(O)c2cccnc2)CCN2CCCC12 (single isomer, unassigned) [26c] | Percentage inhibition of ligand binding, Adrenergic α2A [1, 7]: 19%; Percentage inhibition of ligand binding, Adrenergic α2B [2, 8]: 1% and 7%; Percentage inhibition of ligand binding, Adrenergic α1B [3, 9]: 1%
47 | 5 | -2 |  |  |  | Cc1ccc(CCn2c3c(c4c(Cl)ccc(Cl)c42)CCN(C)CC3)cn1 [II-246, 7,10-dichloro-1,2,3,4,5,6-hexahydro-3-methyl-6-(2-(6-methylpyridin-3-yl)ethyl)azepino [4,5-b]indole] | 
31 | 97 | 37 | 34% | 100% | 45% | Cc1ccc2c(c1)c1c(n2CC(C)(O)c2cccnc2)CNCC1 (single isomer, unassigned) [128a] | Ki [1]: 98.6 nM; inhibition at 0.03 µM ([1]; read-out: Percentage inhibition of ligand binding, Adrenergic α2A (0.03 μM), compound at 0.03 μM, [3H]MK-912, repeat datapoints each shown): 9%; Ki [2]: 0.97 nM; inhibition at 0.1 µM ([2]; read-out: Percentage inhibition of ligand binding, Adrenergic α2B (0.1 μM), compound at 0.1 μM, [3H]Rauwolscine, repeat datapoints each shown): 104%; inhibition at 0.03 µM ([3]; read-out: Percentage inhibition of ligand binding, Adrenergic α1B (0.03 μM), compound at 0.03 μM, repeat datapoints each shown): 14%
 |  |  | 3% | 52% | 18% | Cc1ccc2c(c1)c1c(n2CC(O)c2ccc(C#N)nc2)CCN(C)C1 (single isomer, unassigned) [140b, 5-[2-(2,8-dimethyl-1,2,3,4-tetrahydro-pyrido[4,3-b]indol-5-yl)-1-hydroxy-ethyl]-pyridine-2-carbonitrile] | 
 |  |  | 10% | 47% | 24% | Cc1ccc2c(c1)c1c(n2CC(O)c2ccc(C)nc2)CCN2CCCC12 (single isomer, unassigned) [198a, 2-(9-methyl-1,2,3,4,5,10c-hexahydro-3a,6-diaza-cyclopenta[c]fluoren-6-yl)-1-(6-methyl-pyridin-3-yl)-ethanol] | 
 |  |  | 80% and 85% | 100% and 103% | 93% and 96% | Cc1ccc2c(c1)c1c(n2CC(C)(O)c2ccc(F)cc2)CCN2CCCC12 (single isomer, unassigned) [II-121b, 2-(4-fluoro-phenyl)-1-(9-methyl-1,2,3,4,5,10c-hexahydro-3a,6-diaza-cyclopenta[c]fluoren-6-yl)-propan-2-ol] | Ki [1]: 9.18 nM; Percentage inhibition of ligand binding, Adrenergic α2A (0.03 μM) ([1]; compound at 0.03 μM, [3H]MK-912, repeat datapoints each shown, 0.03 µM): 54%; Ki [2]: 0.22 nM; Percentage inhibition of ligand binding, Adrenergic α1B (0.03 μM) ([3]; compound at 0.03 μM, repeat datapoints each shown, 0.03 µM): 77%
 |  |  |  |  |  | Cc1ccc2c(c1)c1c(n2CC(O)c2ccncc2)CC2CCC1N2C (stereo not drawn) [compound 73] | inhibition at 0.1 µM ([1]; compound at 0.1 μM, [3H]MK-912, repeat assays, each datapoint shown, read-out: Percentage inhibition of ligand binding, Adrenergic α2A): 15%; inhibition at 0.03 µM ([2]; compound at 0.03 μM, [3H]Rauwolscine, repeat assays, each datapoint shown, read-out: Percentage inhibition of ligand binding, Adrenergic α2B): 61%; inhibition at 0.1 µM ([3]; compound at 0.1 μM, repeat assays, each datapoint shown, read-out: Percentage inhibition of ligand binding, Adrenergic α1B): 17%
-2 | 22 | 7 |  |  |  | Cc1ccc2c(c1)c1c(n2CC(C)(O)c2cncc(C(=O)O)c2)CCN(C)C1 (stereo not drawn) [II-141, 5-(1-(1,2,3,4-tetrahydro-2,8-dimethylpyrido[4,3-b]indol-5-yl)-2-hydroxypropan-2-yl)pyridine-3-carboxylic acid] | 
 |  | 41 | 16% | 62% |  | Cc1cc2c3c(n(CC(C)(O)c4cccnc4)c2cc1Cl)CCN(C)C3 (single isomer, unassigned) [II-123a, 1-(7-chloro-2,8-dimethyl-3,4-dihydro-1H-pyrido[4,3-b]indol-5(2H)-yl)-2-(pyridin-3-yl)propan-2-ol] | 
 |  |  |  |  |  | Cc1ccc2c(c1)c1c(n2CC(O)c2ccncc2)CCN2CCCCC12 (single isomer, unassigned) [47a] | Percentage inhibition of ligand binding, Adrenergic α2A [1, 7]: 10%; Percentage inhibition of ligand binding, Adrenergic α2B [2, 8]: 40%; Percentage inhibition of ligand binding, Adrenergic α1B [3, 9]: 58%
 |  |  | 3% | 31% | 10% | Cc1ccc2c(c1)c1c(n2CC(C)(O)c2cccnc2)C(c2ccccc2)N(C)CC1 (stereo not drawn) [II-112b, 1-(2,6-dimethyl-1-phenyl-1,2,3,4-tetrahydro-β-carbolin-9-yl)-2-pyridin-3-yl-propan-2-ol] | 
 | 43 |  | −12% |  | 35% | Cc1cnc2c(c1)c1c(n2CC(N)c2ccc(C#N)cc2)CCNC1 (single isomer, unassigned) [160a] | 

Compound | inhibition at 0.1 µM [1, 4] [%] | inhibition at 0.03 µM [2, 5] [%] | inhibition at 0.1 µM [3, 6] [%] | Percentage inhibition of ligand binding, Adrenergic α2A (0.1 μM) [1, 10] | Percentage inhibition of ligand binding, Adrenergic α2B (0.03 μM) [2, 11] | Percentage inhibition of ligand binding, Adrenergic α1B (0.1 μM) [3, 12] | further results
Cc1cnc2c(c1)c1c(n2CCc2ccc(C)nc2)CCN2CCCCC12 (single isomer, unassigned) [IV-8b] |  |  |  | 22% | 3% | 5% | 
